Structures can show the parent of a compound that is named as a salt.
Tests used:
[1] = system: 6 Hz psychomotor seizures; assay: 6 Hz (32 mA) psychomotor seizure test; format: in vivo, mice; conditions: Mus musculus, 32 mA; for responders at 100 mg/kg: mice, ip, 0.5 h, read-out: 6 Hz: number of mice protected/number of mice tested (converted)
Text: Psychomotor seizures were induced via corneal stimulation (6 Hz, 32 mA, 0.2 ms rectangular pulse width, 3 s duration) using a constant-current device (ECT Unit 57800, Ugo Basile, Italy). A drop of 1% solution of lidocaine hydrochloride was applied to the mouse corneas before stimulation to provide local anesthesia and ensure optimal current conductivity. After the electrical stimulation, mice were gently released and observed for the presence or absence of seizure activity, being characterized by immobility associated with rearing, forelimb clonus, twitching of the vibrissae, stun, and Straub-tail. Lack of the above symptoms or their cessation within 10 s from the stimulation was considered as absence of seizure activity. The initial anticonvulsant screening of the tested compounds was performed at a fixed dose of 100 mg/kg (four mice per group). Then ED50 was calculated for active compounds as described above.

[2] = system: maximal electroshock seizures; assay: Maximal electroshock seizure (MES) test; format: in vivo, mice; conditions: Mus musculus; mice, ip, 100 mg/kg, 0.5 h; read-out: MES: number of mice protected/number of mice tested (converted)
Experimental: The MES test was performed as previously described. Stimuli (25 mA, 0.2 s, 50 Hz) were generated by a constant current stimulator (Rodent shocker, Type 221, Hugo Sachs Elektronik, Germany) and delivered with the use of auricular electrodes. During the stimulation, each mouse was restrained manually, and immediately after the stimulation gently released for observation. The endpoint was the tonic extension of the hind limbs. Mice not displaying hindlimb tonic extension were considered to be protected from seizure. The initial anticonvulsant screening of the tested compounds was performed at a fixed dose of 100 mg/kg (four mice per group). […] To evaluate the ED50, at least three groups of animals were injected with various doses of tested compounds. Each group consisted of six animals.

[3] = system: motor impairment on rotarod; assay: Rotarod test (acute neurotoxicity, NT); format: in vivo; conditions: ip, 100 mg/kg, 0.5 h
Experimental: In this test mice were trained to balance on an accelerating rotarod that rotated at 10 rotations per minute (Rotarod apparatus, May Commat RR0711, Turkey; rod diameter: 3 cm). During the training session, the animals were placed on a rotating rod for 3 min with an unlimited number of trials. Proper experiment was conducted 24 h after the training trial. On the test day, trained mice were intraperitoneally pretreated with the test compound at a dose of 100 mg/kg and just before the MES test were tested on the rotarod. Neurotoxicity was indicated by the inability of the animal to maintain equilibration on the rod for 1 min. […] Each group consisted of six animals.

[4] = system: PTZ-induced clonic seizures; assay: Subcutaneous pentylenetetrazole (scPTZ) seizure test; format: in vivo; conditions: mice, 100 mg/kg
Experimental: Clonic convulsions were induced by the subcutaneous (sc) administration of PTZ at a dose of 100 mg/kg. After PTZ injection, the mice were placed separately and observed during the next 30 min for the occurrence of clonic seizures. Clonic seizures were defined as clonus of the whole body lasting more than 3 s, with an accompanying loss of righting reflex. The latency to first clonus, the number of seizure episodes, and mortality rate were noted and compared with vehicle-treated and drug-treated groups. The absence of clonic convulsions within the observed time period was interpreted as the compound’s ability to protect against PTZ-induced seizures.

Hep G2 cells = assay: Hepatotoxicity, PrestoBlue viability assay; format: cell-based, human; conditions: 1–100 μM, 24 h
Experimental: Hepatotoxicity of tested compounds was assessed in PrestoBlue (Thermo Fisher Scientific, Waltham, MA, USA) Experiments on microplate reader (SpectraMax® iD3, Molecular Devices, San Jose, CA, USA) using human hepatocellular carcinoma cells (Hep G2) ATCC® […]. The cells were cultured in standard conditions (37 °C, 5% CO2), in Dulbecco’s Modified Eagle’s Medium-high glucose, (DMEM, Gibco, Thermo Fisher Scientific, Waltham, MA, USA) supplemented with 10% fetal bovine serum (Thermo Fisher Scientific, Waltham, MA, USA), with added 100 IU/mL penicillin (Sigma Aldrich, Steinheim, Germany) and 100 µg/mL streptomycin (Sigma Aldrich). PrestoBlue reagent is a resazurin-based solution that functions as a cell viability indicator. Metabolically active cells are capable of reducing the PrestoBlue reagent, with the colorimetric changes used as an indicator to quantify the viability of cells in culture. This change can be determined by measuring the fluorescence. After 24 h of incubation with the compounds PrestoBlue reagent was added to wells of a microplate. After 20 min of incubation at 37 °C, the fluorescence intensity (EX 530; EM 580 nm) was measured in a plate reader. Viability values were calculated as a percentage of live cells with respect to the control sample (DMSO). The negative control was medium without cells. Astemizole was used as a reference substance.

[5] = system: latency time to pain reaction; assay: Hot plate test; format: in vivo; conditions: mice, 5 mg/kg, p < 0.001
Experimental: The hot plate test was carried out based on the Eddy and Leimbach (1953) method. In this test, the apparatus was equipped with an electrically heated surface with a temperature controller that maintains surface temperature to a set point. Herein, the temperature was set at 55 °C. The animals were treated ip either with the test compounds, or vehicle 30 min before placing the animal on a hot plate apparatus. Latency time to pain reaction, i.e., the time until the animal licked its back paws or jumped was recorded by means of the stopwatch.

| Structure (SMILES) | melting point | responders at 100 mg/kg [1] | responders at 100 mg/kg [2] | NT: number of mice with motor impairment/number of mice tested [3] | other results |
| --- | --- | --- | --- | --- | --- |
| Cc1ccsc1C1CC(=O)N(CCCN2CCN(c3ccc(F)cc3)CC2)C1=O (racemic) (as salt: hydrochloride) [Compound 5, (R,S)-1-(3-(4-(4-Fluorophenyl)piperazin-1-yl)propyl)-3-(3-methylthiophen-2-yl)pyrrolidine-2,5-dione hydrochloride] | 160 to 162 °C | – | – | – | – |
| Cc1ccsc1C1CC(=O)N(CCCN2CCN(c3cccc(C(F)(F)F)c3)CC2)C1=O (racemic) (as salt: hydrochloride) [Compound 6, (R,S)-3-(3-Methylthiophen-2-yl)-1-(3-(4-(3-(trifluoromethyl)phenyl)piperazin-1-yl)propyl)pyrrolidine-2,5-dione hydrochloride] | 183 to 185 °C | – | – | – | – |
| Cc1ccsc1C1CC(=O)N(CCCN2CCN(c3cccc(Cl)c3)CC2)C1=O (racemic) (as salt: hydrochloride) [Compound 7, (R,S)-1-(3-(4-(3-Chlorophenyl)piperazin-1-yl)propyl)-3-(3-methylthiophen-2-yl)pyrrolidine-2,5-dione hydrochloride] | 181.5 to 183.5 °C | – | – | – | – |
| Cc1ccsc1C1CC(=O)N(CCCN2CCN(c3ccc(Cl)cc3)CC2)C1=O (racemic) (as salt: hydrochloride) [Compound 8, (R,S)-1-(3-(4-(4-Chlorophenyl)piperazin-1-yl)propyl)-3-(3-methylthiophen-2-yl)pyrrolidine-2,5-dione hydrochloride] | 68 to 70 °C | – | – | – | – |
| Cc1ccsc1C1CC(=O)N(CCCN2CCN(c3ccc(Cl)c(Cl)c3)CC2)C1=O (racemic) (as salt: hydrochloride) [Compound 9, (R,S)-1-(3-(4-(3,4-Dichlorophenyl)piperazin-1-yl)propyl)-3-(3-methylthiophen-2-yl)pyrrolidine-2,5-dione hydrochloride] | 101 to 103 °C | – | – | – | – |
| Cc1ccsc1C1CC(=O)N(CCCN2CCN(c3ccc(F)cc3)CC2)C1=O (racemic) [Compound 5, (R,S)-1-(3-(4-(4-Fluorophenyl)piperazin-1-yl)propyl)-3-(3-methylthiophen-2-yl)pyrrolidine-2,5-dione hydrochloride] | – | 0% | 0% | 4/4 | – |
| Cc1ccsc1C1CC(=O)N(CCCN2CCN(c3cccc(Cl)c3)CC2)C1=O (racemic) [Compound 7, (R,S)-1-(3-(4-(3-Chlorophenyl)piperazin-1-yl)propyl)-3-(3-methylthiophen-2-yl)pyrrolidine-2,5-dione hydrochloride] | – | 0% | 0% | 2/4 | – |
| Cc1ccsc1C1CC(=O)N(CCCN2CCN(c3ccc(Cl)cc3)CC2)C1=O (racemic) [Compound 8, (R,S)-1-(3-(4-(4-Chlorophenyl)piperazin-1-yl)propyl)-3-(3-methylthiophen-2-yl)pyrrolidine-2,5-dione hydrochloride] | – | 25% | 25% | 0/4 | – |
| Cc1ccsc1C1CC(=O)N(CC(=O)N2CCOCC2)C1=O (racemic) [Compound 10, (R,S)-3-(3-Methylthiophen-2-yl)-1-(2-morpholino-2-oxoethyl)pyrrolidine-2,5-dione] | 142 to 144 °C | 25% | 0% | 0/4 | – |
| Cc1ccsc1C1CC(=O)N(CC(=O)N2CCN(c3ccc(F)cc3)CC2)C1=O (racemic) [Compound 11, (R,S)-1-(2-(4-(4-Fluorophenyl)piperazin-1-yl)-2-oxoethyl)-3-(3-methylthiophen-2-yl)pyrrolidine-2,5-dione] | 165 to 166 °C | 0% | 0% | 0/4 | – |
| Cc1ccsc1C1CC(=O)N(CC(=O)N2CCN(c3cccc(C(F)(F)F)c3)CC2)C1=O (racemic) [Compound 12, (R,S)-3-(3-Methylthiophen-2-yl)-1-(2-oxo-2-(4-(3-(trifluoromethyl)phenyl)piperazin-1-yl)ethyl)pyrrolidine-2,5-dione] | 135 to 137 °C | 0% | 0% | 1/4 | – |
| Cc1ccsc1C1CC(=O)N(CC(=O)N2CCN(c3ccccc3Cl)CC2)C1=O (racemic) [Compound 13, (R,S)-1-(2-(4-(2-Chlorophenyl)piperazin-1-yl)-2-oxoethyl)-3-(3-methylthiophen-2-yl)pyrrolidine-2,5-dione] | 141 to 143 °C | 25% | 0% | 0/4 | – |
| Cc1ccsc1C1CC(=O)N(CC(=O)N2CCN(c3ccc(Cl)cc3)CC2)C1=O (racemic) [Compound 15, (R,S)-1-(2-(4-(4-Chlorophenyl)piperazin-1-yl)-2-oxoethyl)-3-(3-methylthiophen-2-yl)pyrrolidine-2,5-dione] | 179 to 181 °C | 25% | 0% | 0/4 | – |
| Cc1ccsc1C1CC(=O)N(CC(=O)N2CCN(c3cccc(Cl)c3Cl)CC2)C1=O (racemic) [Compound 16, (R,S)-1-(2-(4-(2,3-Dichlorophenyl)piperazin-1-yl)-2-oxoethyl)-3-(3-methylthiophen-2-yl)pyrrolidine-2,5-dione] | 112 to 113.5 °C | 0% | 0% | 0/4 | – |
| Cc1ccsc1C1CC(=O)N(CC(=O)N2CCN(c3ccc(Cl)c(Cl)c3)CC2)C1=O (racemic) [Compound 17, (R,S)-1-(2-(4-(3,4-Dichlorophenyl)piperazin-1-yl)-2-oxoethyl)-3-(3-methylthiophen-2-yl)pyrrolidine-2,5-dione] | – | 50% | 0% | 0/4 | scPTZ: effect in words [4]: no significant effect; ED50 ([1]; mice ip, 95% confidence limit in brackets): > 150 mg/kg |
| COc1ccc(CCN2CCC(Nc3nc4ccccc4n3Cc3ccc(F)cc3)CC2)cc1 [Astemizole, reference compound] | – | – | – | – | Hepatotoxicity in HepG2 cells, in words (Hep G2 cells): inhibits the viability of HepG2 cells in a dose-dependent manner |
| CN1CC[C@]23c4c5ccc(O)c4O[C@H]2[C@@H](O)C=C[C@H]3[C@H]1C5 [morphine, reference compound] | – | – | – | – | Hot plate: prolongation of latency time to pain reaction [5]: 74% |

Source: paper PMC7461116, “Synthesis, Anticonvulsant and Antinociceptive Activity of New Hybrid Compounds: Derivatives of 3-(3-Methylthiophen-2-yl)-pyrrolidine-2,5-dione” (International Journal of Molecular Sciences, 2020)
